Assay results taken from US9931347B2, “Pharmaceutical compound” (IOmet Pharma Ltd., priority 2013, dated 2018).

Key:
[1] = biological target: T1, IDO (SKOV3 human ovarian adenocarcinoma cells, IFN-γ induced) (Homo sapiens, UniProt P14902); test: SKOV3 Kynurenine cell based assay; conditions: IDO induced by 500 ng/ml IFN-γ, 500 μM L-tryptophan, 48 hours
T1 construct: IDO expression was induced in the SKOV3 cells by the addition of 500 ng/ml IFN-γ; endogenous in cells; host or cells: SKOV3 human ovarian adenocarcinoma cells, induced with IFN-γ
T1 sequence (P14902 whole entry): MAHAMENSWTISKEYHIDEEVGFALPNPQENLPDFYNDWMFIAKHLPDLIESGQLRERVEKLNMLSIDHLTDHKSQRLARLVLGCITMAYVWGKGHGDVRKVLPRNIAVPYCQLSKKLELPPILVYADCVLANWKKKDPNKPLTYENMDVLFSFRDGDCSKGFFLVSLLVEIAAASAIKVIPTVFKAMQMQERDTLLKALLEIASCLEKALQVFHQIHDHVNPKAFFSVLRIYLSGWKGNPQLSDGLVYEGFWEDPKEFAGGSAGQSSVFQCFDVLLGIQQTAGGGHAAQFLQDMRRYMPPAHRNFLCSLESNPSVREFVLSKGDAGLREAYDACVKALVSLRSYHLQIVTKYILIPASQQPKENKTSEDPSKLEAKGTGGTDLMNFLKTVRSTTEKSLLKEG
Outline: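 Kynurenine in the supernatant, detected by Ehrlich's reagent, served as read-out after 48 h at 37° C with or without test compound. SKOV3 cells (40,000/well) were grown in phenol red-free RPMI, 10% FCS, 2 mM L-glutamine, 500 μM L-tryptophan, with 500 ng/ml IFN-γ to induce IDO.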

[2] = biological target: T2, TDO (A172 human glioblastoma cells) (Homo sapiens, UniProt P48775); test: A172 Kynurenine cell based assay; conditions: 500 μM L-tryptophan, 48 hours, kynurenine by Erhlich's reagent
T2 construct: This assay utilised cancer cells which expressed either TDO or IDO; endogenous in cells; host or cells: A172 human glioblastoma cells
T2 sequence (P48775 whole entry): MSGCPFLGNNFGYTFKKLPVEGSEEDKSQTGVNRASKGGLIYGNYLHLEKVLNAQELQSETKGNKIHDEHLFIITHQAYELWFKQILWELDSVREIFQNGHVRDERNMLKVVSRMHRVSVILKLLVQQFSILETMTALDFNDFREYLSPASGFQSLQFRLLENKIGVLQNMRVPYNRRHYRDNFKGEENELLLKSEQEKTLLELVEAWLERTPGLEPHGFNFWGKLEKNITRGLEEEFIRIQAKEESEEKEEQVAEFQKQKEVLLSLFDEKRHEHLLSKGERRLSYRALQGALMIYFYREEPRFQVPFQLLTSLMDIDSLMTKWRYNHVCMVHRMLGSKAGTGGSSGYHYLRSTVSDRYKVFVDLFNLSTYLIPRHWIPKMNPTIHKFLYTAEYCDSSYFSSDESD
Outline: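 Kynurenine released into the supernatant was quantified by absorbance at 490 nm after 5 min with Erhlich's reagent. A172 cells were seeded at 30,000/well and exposed to test compound for 48 hours at 37° C. in phenol red-free RPMI containing 500 μM L-tryptophan, 10% FCS and 2 mM L-glutamine.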

Recombinant human TDO = Recombinant human TDO (Homo sapiens, UniProt P48775); test: hTDO biochemical coupled assay; conditions: 330 μM L-tryptophan, coupled with kynurenine formamidase
Sequence of Recombinant human TDO (P48775 whole entry): as above
Outline: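 Recombinant human TDO with 330 μM L-tryptophan in 50 mM KPO4 pH 7.0 containing EGTA, EDTA, Triton X100, ascorbate, methylene blue, catalase and kynurenine formamidase (KynB), 17 min at room temperature. Stopped with Ehrlich's reagent, 5 min, then kynurenine fluorescence read (Ex475, Em530).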

Recombinant human IDO = Recombinant human IDO (Homo sapiens, UniProt P14902); test: hIDO biochemical coupled assay; conditions: 45 μM L-tryptophan, coupled with kynurenine formamidase
Sequence of Recombinant human IDO (P14902 whole entry): as the sequence (P14902 whole entry) above
Outline: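 Recombinant human IDO incubated in 50 mM KPO4 (pH 7.0), 0.5 mM EGTA, 0.5 mM EDTA, 0.05% Triton X100, 20 mM ascorbate, 10 μM methylene blue, 500 U/ml catalase and 50 μg/ml kynurenine formamidase. N-formylkynurenine converted to kynurenine, quantified by fluorescence after Ehrlich's reagent.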

Row | SMILES | SKOV3 Kynurenine cell based assay pIC50 [1] | A172 Kynurenine cell based assay pIC50 [2] | hTDO biochemical assay pIC50 (Recombinant human TDO) | hIDO biocehmical assay pIC50 (Recombinant human IDO)
1 | Cc1ccc2[nH]cc(C3CCN(S(=O)(=O)c4ccc(C(C)(C)C)cc4)CC3)c2c1 [Compound 58] | + (+ = pIC50 4.00-4.99) | + (+ = pIC50 4.00-4.99) | +− (+− = pIC50 <4.00) | +− (+− = pIC50 <4.00)
2 | CC(=O)N1CC=C(c2n[nH]c3ccccc23)CC1 [Compound 102] | +− (+− = pIC50 <4.00) | +− (+− = pIC50 <4.00) | + (+ = pIC50 4.00-4.99) | +− (+− = pIC50 <4.00)
3 | Cc1ccc2[nH]cc(C3CCN(S(C)(=O)=O)CC3)c2c1 [Compound 85] | ++ (++ = pIC50 5.00-5.99) | ++ (++ = pIC50 5.00-5.99) | +− (+− = pIC50 <4.00) | +− (+− = pIC50 <4.00)
4 | CC(=O)N1CCC(c2c[nH]c3ncccc23)CC1 [Compound 99] | + (+ = pIC50 4.00-4.99) | +− (+− = pIC50 <4.00) | +− (+− = pIC50 <4.00) | +− (+− = pIC50 <4.00)
5 | CCOC(=O)N1CCC(c2c[nH]c3ccccc23)CC1 [Compound 66] | + (+ = pIC50 4.00-4.99) | + (+ = pIC50 4.00-4.99) | +− (+− = pIC50 <4.00) | +− (+− = pIC50 <4.00)
6 | CC(=O)N1CCC(c2c[nH]c3ccccc23)CC1 [Compound 1] | + (+ = pIC50 4.00-4.99) | ++ (++ = pIC50 5.00-5.99) | +− (+− = pIC50 <4.00) | +− (+− = pIC50 <4.00)
7 | Cc1ccc(S(=O)(=O)N2CCC(c3c[nH]c4ccccc34)CC2)cc1 [Compound 9] | + (+ = pIC50 4.00-4.99) | + (+ = pIC50 4.00-4.99) | +− (+− = pIC50 <4.00) | +− (+− = pIC50 <4.00)
8 | Cc1ccc(S(=O)(=O)N2CCC(c3c[nH]c4ccccc34)CC2)c(C)c1 [Compound 14] | +− (+− = pIC50 <4.00) | + (+ = pIC50 4.00-4.99) | +− (+− = pIC50 <4.00) | +− (+− = pIC50 <4.00)
9 | CC(=O)N1CC=C(c2c[nH]c3c(F)cccc23)CC1 [Compound 94] | +− (+− = pIC50 <4.00) | + (+ = pIC50 4.00-4.99) | + (+ = pIC50 4.00-4.99) | +− (+− = pIC50 <4.00)
10 | CS(=O)(=O)N1CC=C(c2c[nH]c3ccc(Cl)cc23)CC1 [Compound 166] | + (+ = pIC50 4.00-4.99) | ++ (++ = pIC50 5.00-5.99) | + (+ = pIC50 4.00-4.99) | +− (+− = pIC50 <4.00)
11 | CC(=O)N1CCC(c2c[nH]c3cccc(F)c23)CC1 [Compound 98] | +− (+− = pIC50 <4.00) | + (+ = pIC50 4.00-4.99) | +− (+− = pIC50 <4.00) | +− (+− = pIC50 <4.00)
12 | Cc1ccc2[nH]cc(C3CCN(S(=O)(=O)c4cc(C)c(Cl)cc4Cl)CC3)c2c1 [Compound 31] | + (+ = pIC50 4.00-4.99) | +− (+− = pIC50 <4.00) | +− (+− = pIC50 <4.00) | +− (+− = pIC50 <4.00)
13 | Cc1cccc2c(C3CCN(S(=O)(=O)c4ccc5c(c4)CN(C(=O)C(F)(F)F)CC5)CC3)c[nH]c12 [Compound 37] | + (+ = pIC50 4.00-4.99) | +− (+− = pIC50 <4.00) | +− (+− = pIC50 <4.00) | +− (+− = pIC50 <4.00)
14 | CS(=O)(=O)N1CC=C(c2c[nH]c3cc(Cl)ccc23)CC1 [Compound 76] | + (+ = pIC50 4.00-4.99) | ++ (++ = pIC50 5.00-5.99) | ++ (++ = pIC50 5.00-5.99) | +− (+− = pIC50 <4.00)
15 | O=C(c1ccccc1)N1CCC(c2c[nH]c3ccccc23)CC1 [Compound 82] | +− (+− = pIC50 <4.00) | + (+ = pIC50 4.00-4.99) | +− (+− = pIC50 <4.00) | +− (+− = pIC50 <4.00)
16 | CCNC(=O)N1CCC(c2c[nH]c3ccccc23)CC1 [Compound 68] | +− (+− = pIC50 <4.00) | + (+ = pIC50 4.00-4.99) | ++ (++ = pIC50 5.00-5.99) | +− (+− = pIC50 <4.00)
17 | CCCS(=O)(=O)N1CCC(c2c[nH]c3ccccc23)CC1 [Compound 69] | +− (+− = pIC50 <4.00) | ++ (++ = pIC50 5.00-5.99) | + (+ = pIC50 4.00-4.99) | +− (+− = pIC50 <4.00)
18 | CC(=O)N1CC=C(c2c(C)[nH]c3ccccc23)CC1 [Compound 104] | + (+ = pIC50 4.00-4.99) | +− (+− = pIC50 <4.00) | + (+ = pIC50 4.00-4.99) | +− (+− = pIC50 <4.00)
19 | CC(C)OCC(=O)N1CC=C(c2c[nH]c3cc(F)ccc23)CC1 [Compound 163] | + (+ = pIC50 4.00-4.99) | +++ (+++ = pIC50 ≥6.00) | ++ (++ = pIC50 5.00-5.99) | +− (+− = pIC50 <4.00)
20 | CS(=O)(=O)N1CC=C(c2c[nH]c3cc(F)c(F)cc23)CC1 [Compound 168] | + (+ = pIC50 4.00-4.99) | +++ (+++ = pIC50 ≥6.00) | ++ (++ = pIC50 5.00-5.99) | +− (+− = pIC50 <4.00)
21 | O=S(=O)(c1cccc(OC(F)(F)F)c1)N1CCC(c2c[nH]c3ccccc23)CC1 [Compound 57] | + (+ = pIC50 4.00-4.99) | + (+ = pIC50 4.00-4.99) | +− (+− = pIC50 <4.00) | +− (+− = pIC50 <4.00)
22 | CC(=O)N1CC=C(c2c[nH]c3ccc(Cl)cc23)CC1 [Compound 165] | + (+ = pIC50 4.00-4.99) | ++ (++ = pIC50 5.00-5.99) | + (+ = pIC50 4.00-4.99) | +− (+− = pIC50 <4.00)
23 | CCCCS(=O)(=O)N1CC=C(c2c[nH]c3cc(F)ccc23)CC1 [Compound 18] | + (+ = pIC50 4.00-4.99) | ++ (++ = pIC50 5.00-5.99) | + (+ = pIC50 4.00-4.99) | +− (+− = pIC50 <4.00)
24 | CC(=O)N1CC=C(c2c[nH]c3cc(Cl)ccc23)CC1 [Compound 79] | + (+ = pIC50 4.00-4.99) | ++ (++ = pIC50 5.00-5.99) | ++ (++ = pIC50 5.00-5.99) | +− (+− = pIC50 <4.00)
25 | Cc1ccc2[nH]cc(C3CCN(S(=O)(=O)c4cc(C(F)(F)F)ccc4C(F)(F)F)CC3)c2c1 [Compound 35] | + (+ = pIC50 4.00-4.99) | +− (+− = pIC50 <4.00) | +− (+− = pIC50 <4.00) | +− (+− = pIC50 <4.00)
26 | Cc1ccc2[nH]cc(C3=CCN(S(C)(=O)=O)CC3)c2c1 [Compound 92] | + (+ = pIC50 4.00-4.99) | ++ (++ = pIC50 5.00-5.99) | + (+ = pIC50 4.00-4.99) | +− (+− = pIC50 <4.00)
27 | CC(=O)N1CC=C(c2c[nH]c3ncccc23)CC1 [Compound 105] | + (+ = pIC50 4.00-4.99) | +− (+− = pIC50 <4.00) | + (+ = pIC50 4.00-4.99) | +− (+− = pIC50 <4.00)
28 | CN(C)CC(=O)N1CCC(c2c[nH]c3ccccc23)CC1 [Compound 81] | +− (+− = pIC50 <4.00) | +− (+− = pIC50 <4.00) | + (+ = pIC50 4.00-4.99) | +− (+− = pIC50 <4.00)
